The subject of series [1] is rats. The series can be described thus: Catalepsy Test. It is filed as in vivo. The note with it: in words, relative to chlorpromazine. How it is done: (§1) A cataleptic activity-- "wax rigidity", i.e., abnormally long retention of a fixed body position--in central depressant or neuroleptically active compounds is considered to be an undesirable side-effect and is produced by motor disorders. Representative dibenz[b,f]oxepin derivatives provided by this invention were administered intraperitoneally to rats. The animals are considered to be cataleptic when the homolateral extremities remain in a crossed position for at least 10 seconds. The number of cataleptic animals is noted every 30 minutes for 6 hours. The ED50 is the dose at which 50% of the animals show catalepsy.

A further series can be described thus: Catalepsy Test. Conditions: rat, in vivo, ip; rats, intraperitoneally; observed every 30 minutes for 6 hours; read-out: ED50 (dose at which 50% of the animals show catalepsy). The format is in vivo, rats. How it is done:
as §1

Another series deals with homovanillic acid. The series can be described thus: Determination of Homovanillic Acid (HVA) in rat brain. The format is in vivo, rats. The note with it: po, 2 h, read-out: Increase in HVA; for response vs control in vivo at 50 mg/kg: dose 50 mg/kg p.o.
The next series is described as follows: in vivo. Conditions: mouse, po.
Series [2] relates to rats. The series can be described thus: "Pole Climbing" Test (conditioned / unconditioned reaction). Conditions: for ED50: Rattus norvegicus, po, read-out: ED50 (blocking of the conditioned reaction); for ED50 / Quotient ED10 (blocking of the unconditioned reaction)/ED50 (blocking of the conditioned reaction): rats, p.o.; for Quotient ED10 (blocking of the unconditioned reaction)/ED50 (blocking of the conditioned reaction): larger quotient = greater selectivity of neuroleptic activity. The format is in vivo. From the text: II. "Pole Climbing" Test This test provides information about behavior reactions of rats. Rats are trained to avoid, by climbing up a vertical pole in the test chamber, an electrical impulse-- unconditioned impulse-- released via the […] floor some seconds after an acoustic signal-- conditioned impulse. The blocking of the conditioned reaction is designated by the parameter ED50 (mg/kg. p.o.) and the blocking of the unconditioned reaction is designated by the parameter ED10 (mg/kg. p.o.). The parameter ED50 --blocking of the conditioned reaction-- provides a measure of the strength of the neuroleptic activity of the derivative under investigation.

The mark [3] stands for this setting: rats killed two hours after dosing, untreated rats fixed at 100%.
The mark [4] stands for this setting: in words, relative to chlorpromazine.

For `Cc1ccc2c(c1)CC(N1CCN(CCN3CCOC3=O)CC1)c1cc(C)ccc1O2` (stereo not drawn) [D], in the series with rats [1], the “cataleptic side-effect compared with chlorpromazine” value was “about one half to about one eighth of the undesired cataleptic side-effect of chlorpromazine”. In addition, the ED50 at 6 h in “Catalepsy Test” turned out to be 14 mg/kg. For the same compound, the response vs control in vivo at 15 mg/kg in the series on homovanillic acid (dose 15 mg/kg p.o., rats killed two hours after dosing, untreated rats fixed at 100%) was determined as 335%. For the same compound, the LD50 at 24 h in “in vivo” stood at 750 mg/kg. For the same compound, in the series with rats [2], the ED50 stood at 7.6 mg/kg and the “Quotient ED10 (blocking of the unconditioned reaction)/ED50 (blocking of the conditioned reaction)” value (from here on “Quotient ED10”) turned out to be 5.6.
For the compound `O=C1OCCN1CCN1CCN(C2Cc3cc(Cl)ccc3Oc3ccccc32)CC1` (stereo not drawn) [G], the “cataleptic side-effect compared with chlorpromazine” value in the series on rats [1] is “about one half to about one eighth of the undesired cataleptic side-effect of chlorpromazine”. Also, in the series “Catalepsy Test”, the ED50 at 6 h is 50 mg/kg. In the series on homovanillic acid (setting [3]), the response vs control in vivo at 50 mg/kg worked out at 225%. The compound further registered a 50% lethal dose (LD50) at 24 h in “in vivo” of 450 mg/kg. In the series on rats [2], the ED50 was found to be 15.5 mg/kg and the “Quotient ED10” value was 3.5. Moreover, in the series on rats [2] (setting [4]), the “neuroleptic strength of action compared with chlorpromazine” value was “somewhat lower than that of chlorpromazine”.
For `OCCCN1CCN(C2Cc3cc(Cl)ccc3Oc3ccccc32)CC1` (stereo not drawn) [B], in the series on homovanillic acid (dose 3.5 mg/kg p.o., rats killed two hours after dosing, untreated rats fixed at 100%), the response vs control in vivo at 3.5 mg/kg was 260%. For the same compound, the LD50 at 24 h in “in vivo” was 375 mg/kg.
On to `N#CCCN1CCN(C2Cc3cc(Cl)ccc3Oc3ccccc32)CC1` (stereo not drawn) [H], for which the “cataleptic side-effect compared with chlorpromazine” value in the series with rats [1] is “less than one fifth of the undesired cataleptic side-effect of chlorpromazine”. For the same compound, in “Catalepsy Test”, the median effective dose (ED50) at 6 h was > 30 mg/kg. For the same compound, the response vs control in vivo at 50 mg/kg in the series on homovanillic acid (setting [3]) is 275%. In addition, the LD50 at 24 h in “in vivo” amounted to 1500 mg/kg. Further, in the series on rats [2], the ED50 came to 14 mg/kg and the “Quotient ED10” value is > 21. For the same compound, in the series on rats [2] (setting [4]), the “neuroleptic strength of action compared with chlorpromazine” value was “somewhat lower than that of chlorpromazine” and the “quality (selectivity) of the neuroleptic activity compared with chlorpromazine” value was “this superiority is particularly evident”.
Take `O=C1OCCN1CCN1CCN(C2Cc3cc(Cl)ccc3Oc3ccc(Cl)cc32)CC1` (stereo not drawn) [C]: in the series with homovanillic acid (dose 5 mg/kg p.o., rats killed two hours after dosing, untreated rats fixed at 100%), the response vs control in vivo at 5 mg/kg was found to be 365%. Further, the LD50 at 24 h in “in vivo” stood at 900 mg/kg.
With `Cc1ccc2c(c1)CC(N1CCN(C)CC1)c1cc(C)ccc1O2` (stereo not drawn) [A], the response vs control in vivo at 2 mg/kg in the series on homovanillic acid (dose 2 mg/kg p.o., rats killed two hours after dosing, untreated rats fixed at 100%) was found to be 235%. The compound also gave an LD50 at 24 h in “in vivo” of 900 mg/kg. Also, in the series with rats [2], the ED50 is 3.2 mg/kg and the “Quotient ED10” value is given as 3.1.
As to `Cc1ccc2c(c1)CC(N1CCN(CCN3CCOC3=O)CC1)c1cc(F)ccc1O2` (stereo not drawn) [F], in the series on rats [1], the “cataleptic side-effect compared with chlorpromazine” value is on record as “about one half to about one eighth of the undesired cataleptic side-effect of chlorpromazine”. The ED50 at 6 h in “Catalepsy Test” was determined as 30 mg/kg. The response vs control in vivo at 50 mg/kg in the series with homovanillic acid (setting [3]) came out at 265%. The same compound displayed an LD50 at 24 h in the series “in vivo” of 450 mg/kg. In the series with rats [2], the ED50 was determined as 7 mg/kg and the “Quotient ED10” value came to 5.1.
Take `CN(C)CCCN1c2ccccc2Sc2ccc(Cl)cc21` [Chlorpromazine, reference compound]: the ED50 at 6 h in “Catalepsy Test” is 6 mg/kg. Further, the response vs control in vivo at 20 mg/kg with homovanillic acid was found to be 320%. The “Quotient ED10” value in the series on rats [2] was 2.5.
With `O=C1OCCN1CCN1CCN(C2Cc3cc(Cl)ccc3Oc3ccc(F)cc32)CC1` (stereo not drawn) [E], the response vs control in vivo at 10 mg/kg in the series with homovanillic acid (dose 10 mg/kg p.o., rats killed two hours after dosing, untreated rats fixed at 100%) was found to be 260%. In “in vivo”, this compound yielded an LD50 at 24 h of 900 mg/kg. Also, in the series on rats [2], the ED50 turned out to be 3.5 mg/kg and the “Quotient ED10” value stood at 2.8.
